Where two headings read alike, the source gives them in different places.
Columns and labels:
hPBMCs = experiment: Lymphocyte proliferation assay (T-cell proliferation of normal hPBMCs); assay type: cell-based; conditions: Homo sapiens
Excerpt: The assay method was designed as in references, The Journal of Immunology, 153, 1-9, (1994), and Clinical and Diagnostic Laboratory Immunology, 7, 687-692, (2000), the disclosure of which is incorporated by reference for the teaching of the assay.
hPBMCs were obtained from healthy donors by centrifugation of heparinized venous blood over Ficoll/Hypaque solution (Histopaque-1077, Sigma, USA). Isolated hPBMCs were suspended in RPMI 1640 culture medium supplemented with 10% FBS and seeded at a density of 50,000 cells/well in a 96-well plate (Nunc, USA). The cells were incubated at 37° C., 5% CO2 for a period of 24 h. These cells were used for the lymphocyte proliferation as well as cytokine release assay.
The plated cells were treated with different concentrations of the test compound (prepared as 20 mM stock in DMSO and diluted with DMSO to achieve the following final concentrations in the assay: 100, 10, 1, 0.1, 0.01, 0.001 and 0.0001 μM) and were incubated for 30 min. The cells were then stimulated with 5 ng/mL PMA (Sigma, USA, prepared as 100 μg/mL stock in RPMI and was diluted to 5 ng/mL) and 5 μg/mL PHA (Sigma, USA, prepared as a 1 mg/mL stock in RPMI). The plates were incubated at 37° C., 5% CO2 for 48 h. The cells were treated overnight with 0.1 μCi of tritiated thymidine per well (obtained from BARC, India; prepared as stock of 1 mCi/mL) and was diluted in KRPH buffer to 10 μCi/mL and […] and was added per well to obtain a final concentration 0.1 μCi/well) and at the end of 48 h, the anti-proliferative effect of the compound was measured using the following formula: […]
Controls consisted of hPBMCs with PHA and PMA (Stimulated), hPBMCs with RPMI (Un-stimulated), hPBMCs with FK506 (positive control, Sigma, USA, prepared as 20 mM stock in DMSO and diluted with DMSO to achieve the following final concentrations in the assay: 100, 10, 1, 0.1, 0.01, 0.001 and 0.0001 μM).

p38 MAPK = target: T1, p38 MAPK (Homo sapiens, UniProt Q16539); experiment: p38 MAPK assay in anisomycin stimulated Jurkat T-cells (Western blot); assay type: cell-based; conditions: 3 μM, phospho-p38 Western blot
T1 construct: endogenous in cells; host or cells: Jurkat T-cells (ATCC TIB-152, clone E6-1)
Procedure: The method for identifying inhibitors of p38 MAPK was designed as in reference, Journal of Lipid Research, 40, 1911-1919, (1999), the disclosure of which is incorporated by reference for the teaching of the assay.
Human Jurkat T-cells (ATCC number: TIB-152, clone E6-1, USA) were cultured in culture medium (RPMI 1640 culture medium supplemented with 10% FBS, 100 U/mL penicillin and 100 μg/mL streptomycin) at 37° C., 5% CO2. Culture medium was changed every 2-3 days and always a day prior to the experiment. On the day of the experiment, Jurkat cells were pre-treated with vehicle or test compound at 3 μM, 10 times the IC50 value for IL-6 inhibition in human monocyte assay, for 1 h at 37° C. Subsequently, the cells were stimulated with anisomycin (10 μg/mL; Sigma, USA) for 30 min SB 203580 (1 PM; Sigma, USA) was used as a standard. The sample preparation of the test compound, anisomycin and SB 203580 is as follows: a stock solution (20 mM) of the test compound was prepared in DMSO. […]
Following the stimulation, cells were harvested, rapidly washed with ice-cold PBS and lysed with cold Cell Lytic buffer (Sigma, USA) supplemented with complete protease inhibitor cocktail (Roche, USA) and sodium orthovanadate (Sigma, USA). […] Aliquots of the resulting extracts were analyzed for their protein content using the Coomassie Plus Protein Assay Reagent (Pierce, USA) as per manufacturer's instructions. […]

T1 sequence (Q16539 whole entry): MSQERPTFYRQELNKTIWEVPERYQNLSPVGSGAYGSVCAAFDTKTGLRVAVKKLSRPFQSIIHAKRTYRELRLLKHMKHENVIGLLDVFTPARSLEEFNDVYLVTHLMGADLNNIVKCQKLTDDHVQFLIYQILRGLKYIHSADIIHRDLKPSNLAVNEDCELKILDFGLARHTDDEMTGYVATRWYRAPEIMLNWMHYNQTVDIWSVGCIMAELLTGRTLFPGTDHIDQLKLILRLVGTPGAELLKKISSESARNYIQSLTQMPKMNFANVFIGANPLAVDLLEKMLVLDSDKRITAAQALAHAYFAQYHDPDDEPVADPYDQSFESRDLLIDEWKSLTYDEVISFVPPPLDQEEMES

**Q.** Which results are given for C/C=C/C(O)C(C)/C=C/C(=N\O)C(C)C(O)C(C)C1OC(=O)/C(OC)=C/C(C)=C/C(C)C(O)C(CC)C(O)C(C)C/C(C)=C/C=C/C1OC (stereo not drawn) [Compound of example 7, (3Z,5E,13E,15E)-18-((5Z,6E,10E)-3,9-Dihydroxy-5-(hydroxymino)-4,8-dimethyldodeca-6,10-dien-2-yl)-9-ethyl-8,10-dihydroxy-3,17-dimethoxy-5,7,11,13-tetramethyl oxacyclooctadeca-3,5,13,15-tetraen-2-one]?
**A.** IC50 (hPBMCs; read-out: Stimulated hPBMC's IC50 (inhibition of cell proliferation)): 3 nM; IC50 (hPBMCs; read-out: Unstimulated hPBMC's IC50 (inhibition of cell proliferation)): 5000 nM; inhibition of p38 MAP kinase (p38 MAPK): did not inhibit
